Source: US20150225404A1, “PYRIDINE DERIVATIVE AND MEDICINE” (NIPPON SHINYAKU CO., LTD., priority 2012, published 2015)
Structures can show the parent of a compound that is named as a salt.

Each molecule was assayed against T1, human mGluR5 (Homo sapiens, UniProt P41594) (assay: Experiment for receptor function of mGluR5 (Ca2+-dependent fluorescence, FLIPR, CHO-K1 cells stably expressing human mGluR5)). Details: L-glutamic acid 10 μM, Fluo-4 fluorescence.
T1 construct: expressed in transfected cells
Type: cell-based
Protocol: Stable expression cells in which the human mGluR5 gene had been introduced into a Chinese hamster ovary cell (CHO-K1) were used for evaluation. The cells were suspended in a growth medium (MEM-α (D8042, available from Sigma) containing 10% inactivated FBS (Cat. No. 171012, available from CCB) and 2 mM glutamax (Cat. No. 35050, available from GIBCO)) and seeded on a black clear-bottom 96-well plate at 100,000 cells per well. One day after seeding, the medium was replaced by a medium (Hanks' balanced salt solution (HBSS buffer solution) (20 mM HEPES, 2.5 mM probencide (165-15472, available from Wako Pure Chemical Industries, Ltd.), and 10×HBSS (14065-056, available from Gibco) diluted 10 times, pH 7.4)) containing a calcium-sensitive dye Fluo-4 AM at a final concentration of […] (F312, available from Dojindo Laboratories) and Pluronic F-127 at a final concentration of 0.0145% (P-2443, available from Sigma), followed by incubation at 37° C. for one hour, thereby loading Fluo-4 AM into the cells.
Subsequently, the cells were washed twice with an HBSS buffer solution, to which was subsequently added the same buffer solution. Twenty minutes thereafter, the plate was transferred into a fluorescence screening system (FLIPR TETRA, available from Molecular Devices, LLC) and measured for a Ca^2+-dependent fluorescence change in the cells.
First of all, a fluorescence baseline was measured, and thereafter, fluorescence measurement was performed for 2 minutes while adding a test substance, an excessive amount of 6-methyl-2-(phenylethynyl)pyridine (hereinafter referred to as “MPEP”) (final concentration: 10 μM), or the medium. Thereafter, fluorescence measurement was carried out for one minute while adding L-glutamic acid (final concentration: 10 μM).
While taking a fluorescence intensity caused by L-glutamic acid as 100% and a fluorescence intensity caused by L-glutamic acid in the presence of MPEP as 0%, respectively, function inhibitory activity against human mGluR5 was evaluated from the fluorescence intensity caused by L-glutamic acid in the presence of the test substance at each concentration, and an IC50 value was estimated according to a logistic equation (SAS System).

T1 sequence (P41594 21-1212): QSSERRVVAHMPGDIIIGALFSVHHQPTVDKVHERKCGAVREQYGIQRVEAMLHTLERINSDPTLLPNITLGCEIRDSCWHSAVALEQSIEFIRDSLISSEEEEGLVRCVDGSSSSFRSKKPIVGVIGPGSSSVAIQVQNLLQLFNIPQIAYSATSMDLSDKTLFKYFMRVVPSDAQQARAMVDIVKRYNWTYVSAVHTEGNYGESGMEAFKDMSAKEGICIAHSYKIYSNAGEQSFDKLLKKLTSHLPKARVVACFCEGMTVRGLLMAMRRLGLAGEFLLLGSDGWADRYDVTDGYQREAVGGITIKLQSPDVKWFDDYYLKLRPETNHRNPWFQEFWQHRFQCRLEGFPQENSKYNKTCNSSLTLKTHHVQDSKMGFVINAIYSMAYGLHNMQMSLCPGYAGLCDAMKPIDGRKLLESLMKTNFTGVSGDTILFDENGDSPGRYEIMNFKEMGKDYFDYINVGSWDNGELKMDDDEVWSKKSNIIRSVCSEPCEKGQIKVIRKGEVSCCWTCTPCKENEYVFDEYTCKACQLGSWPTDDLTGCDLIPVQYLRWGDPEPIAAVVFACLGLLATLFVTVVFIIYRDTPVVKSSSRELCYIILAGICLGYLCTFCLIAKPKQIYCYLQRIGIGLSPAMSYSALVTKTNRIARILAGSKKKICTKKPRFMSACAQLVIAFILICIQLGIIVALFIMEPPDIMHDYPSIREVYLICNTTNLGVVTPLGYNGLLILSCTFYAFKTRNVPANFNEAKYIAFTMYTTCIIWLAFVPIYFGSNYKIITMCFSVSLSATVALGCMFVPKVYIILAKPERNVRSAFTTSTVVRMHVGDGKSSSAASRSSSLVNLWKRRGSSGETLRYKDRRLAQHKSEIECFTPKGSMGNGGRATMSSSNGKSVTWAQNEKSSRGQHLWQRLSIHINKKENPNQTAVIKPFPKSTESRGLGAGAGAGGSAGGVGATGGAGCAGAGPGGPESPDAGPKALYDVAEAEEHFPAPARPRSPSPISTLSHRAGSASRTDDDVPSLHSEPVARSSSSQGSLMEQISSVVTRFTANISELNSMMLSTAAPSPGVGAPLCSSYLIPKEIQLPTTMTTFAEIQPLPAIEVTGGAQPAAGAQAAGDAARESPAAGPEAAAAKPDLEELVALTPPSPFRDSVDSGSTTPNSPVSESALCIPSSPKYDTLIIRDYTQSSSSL

| SMILES | IC50 [nM] |
| --- | --- |
| Fc1ccc(COc2cc(-c3cccnc3F)c3c(n2)CCCC3)nc1 [Example 138, 4-(2-Fluoropyridin-3-yl)-2-[(5-fluoropyridin-2-yl)methoxy]-5,6,7,8-tetrahydroquinoline hydrochloride] | 95 |
| Fc1cccc(COc2cc(-c3cncnc3)c3c(n2)CCCC3)n1 [Example 144, 2-[(6-Fluoropyridin-2-yl)methoxy]-4-(pyrimidin-5-yl)-5,6,7,8-tetrahydroquinoline] | 19.4 |
| Fc1ccc(COc2cc(-c3cncnc3)c3c(n2)CCCC3)nc1 [Example 145, 2-[(5-Fluoropyridin-2-yl)methoxy]-4-(pyrimidin-5-yl)-5,6,7,8-tetrahydroquinoline] | 74 |
| Fc1ccnc(COc2cc(-c3cncnc3)c3c(n2)CCCC3)c1 [Example 146, 2-[(4-Fluoropyridin-2-yl)methoxy]-4-(pyrimidin-5-yl)-5,6,7,8-tetrahydroquinoline] | 176 |
| N#Cc1cccc(COc2cc(-c3cncnc3)c3c(n2)CCCC3)n1 [Example 149, 6-({[4-(Pyrimidin-5-yl)-5,6,7,8-tetrahydroquinolin-2-yl]oxy}methyl)pyridine-2-carbonitrile] | 19.3 |
| N#Cc1ccc(COc2cc(-c3cncnc3)c3c(n2)CCCC3)nc1 [Example 150, 6-({[4-(Pyrimidin-5-yl)-5,6,7,8-tetrahydroquinolin-2-yl]oxy}methyl)pyridine-3-carbonitrile] | 63 |
| N#Cc1ccnc(COc2cc(-c3cncnc3)c3c(n2)CCCC3)c1 [Example 151, 2-({[4-(Pyrimidin-5-yl)-5,6,7,8-tetrahydroquinolin-2-yl]oxy}methyl)pyridine-4-carbonitrile] | 439 |
| Cc1cccc(COc2cc(-c3cncnc3)c3c(n2)CCCC3)n1 [Example 152, 2-[(6-Methylpyridin-2-yl)methoxy]-4-(pyrimidin-5-yl)-5,6,7,8-tetrahydroquinoline] | 44.8 |
| Cc1cccnc1COc1cc(-c2cncnc2)c2c(n1)CCCC2 [Example 153, 2-[(3-Methylpyridin-2-yl)methoxy]-4-(pyrimidin-5-yl)-5,6,7,8-tetrahydroquinoline] | 316 |
| FC(F)(F)c1cccc(COc2cc(-c3cncnc3)c3c(n2)CCCC3)n1 [Example 154, 4-(Pyrimidin-5-yl)-2-{[6-(trifluoromethyl)pyridin-2-yl]methoxy}-5,6,7,8-tetrahydroquinoline hydrochloride] | 280 |
| Nc1cccc(COc2cc(-c3cncnc3)c3c(n2)CCCC3)n1 [Example 157, 6-({[4-(Pyrimidin-5-yl)-5,6,7,8-tetrahydroquinolin-2-yl]oxy}methyl)pyridin-2-amine] | 333 |
| CNc1cccc(COc2cc(-c3cncnc3)c3c(n2)CCCC3)n1 [Example 158, N-Methyl-6-({[4-(pyrimidin-5-yl)-5,6,7,8-tetrahydroquinolin-2-yl]oxy}methyl)pyridin-2-amine] | 253 |
| COCc1cccc(COc2cc(-c3cncnc3)c3c(n2)CCCC3)n1 [Example 160, 2-{[6-(Methoxymethyl)pyridin-2-yl]methoxy}-4-(pyrimidin-5-yl)-5,6,7,8-tetrahydroquinoline hydrochloride] | 152 |
| C=Cc1cccc(COc2cc(-c3cncnc3)c3c(n2)CCCC3)n1 [Example 161, 2-[(6-Ethenylpyridin-2-yl)methoxy]-4-(pyrimidin-5-yl)-5,6,7,8-tetrahydroquinoline] | 359 |
| Fc1ncc(-c2cc(OCc3ccccn3)nc3c2CCCC3)cn1 [Example 167, 4-(2-Fluoropyrimidin-5-yl)-2-(pyridin-2-ylmethoxy)-5,6,7,8-tetrahydroquinoline hydrochloride] | 20.4 |
| Cc1ncc(-c2cc(OCc3ccccn3)nc3c2CCCC3)cn1 [Example 168, 4-(2-Methylpyrimidin-5-yl)-2-(pyridin-2-ylmethoxy)-5,6,7,8-tetrahydroquinoline] | 153 |
| Nc1ncc(-c2cc(OCc3ccccn3)nc3c2CCCC3)cn1 [Example 169, 5-[2-(Pyridin-2-ylmethoxy)-5,6,7,8-tetrahydroquinolin-4-yl]pyrimidin-2-amine] | 13.9 |
| Clc1ncncc1-c1cc(OCc2ccccn2)nc2c1CCCC2 [Example 176, 4-(4-Chloropyrimidin-5-yl)-2-(pyridin-2-ylmethoxy)-5,6,7,8-tetrahydroquinoline hydrochloride] | 70.8 |
| Cc1ncc(-c2cc(OCc3cccc(F)n3)nc3c2CCCC3)cn1 [Example 185, 2-[(6-Fluoropyridin-2-yl)methoxy]-4-(2-methylpyrimidin-5-yl)-5,6,7,8-tetrahydroquinoline] | 26 |
| Cc1ncc(-c2cc(OCc3ccc(F)cn3)nc3c2CCCC3)cn1 [Example 186, 2-[(5-Fluoropyridin-2-yl)methoxy]-4-(2-methylpyrimidin-5-yl)-5,6,7,8-tetrahydroquinoline] | 26 |
| c1ccc(COc2cc(-c3cnccn3)c3c(n2)CCCC3)nc1 [Example 194, 4-(Pyrazin-2-yl)-2-(pyridin-2-ylmethoxy)-5,6,7,8-tetrahydroquinoline hydrochloride] | 11.4 |
| Clc1cncc(-c2cc(OCc3ccccn3)nc3c2CCCC3)n1 [Example 195, 4-(6-Chloropyrazin-2-yl)-2-(pyridin-2-ylmethoxy)-5,6,7,8-tetrahydroquinoline] | 24.3 |
| Clc1cnc(-c2cc(OCc3ccccn3)nc3c2CCCC3)cn1 [Example 196, 4-(5-Chloropyrazin-2-yl)-2-(pyridin-2-ylmethoxy)-5,6,7,8-tetrahydroquinoline hydrochloride] | 170 |

The next lines start with the values.

| IC50 [nM] | SMILES |
| --- | --- |
| 93.7 | Clc1nccnc1-c1cc(OCc2ccccn2)nc2c1CCCC2 [Example 197, 4-(3-Chloropyrazin-2-yl)-2-(pyridin-2-ylmethoxy)-5,6,7,8-tetrahydroquinoline hydrochloride] |
| 24.5 | Fc1cncc(-c2cc(OCc3ccccn3)nc3c2CCCC3)n1 [Example 199, 4-(6-Fluoropyrazin-2-yl)-2-(pyridin-2-ylmethoxy)-5,6,7,8-tetrahydroquinoline hydrochloride] |
| 144 | Fc1nccnc1-c1cc(OCc2ccccn2)nc2c1CCCC2 [Example 200, 4-(3-Fluoropyrazin-2-yl)-2-(pyridin-2-ylmethoxy)-5,6,7,8-tetrahydroquinoline hydrochloride] |
| 36.2 | Cc1cncc(-c2cc(OCc3ccccn3)nc3c2CCCC3)n1 [Example 201, 4-(6-Methylpyrazin-2-yl)-2-(pyridin-2-ylmethoxy)-5,6,7,8-tetrahydroquinoline] |
| 43 | CCc1cncc(-c2cc(OCc3ccccn3)nc3c2CCCC3)n1 [Example 202, 4-(6-Ethylpyrazin-2-yl)-2-(pyridin-2-ylmethoxy)-5,6,7,8-tetrahydroquinoline] |
| 230 | OCc1cncc(-c2cc(OCc3ccccn3)nc3c2CCCC3)n1 [Example 204, {6-[2-(Pyridin-2-ylmethoxy)-5,6,7,8-tetrahydroquinolin-4-yl]pyrazin-2-yl}methanol] |
| 93 | COc1cncc(-c2cc(OCc3ccccn3)nc3c2CCCC3)n1 [Example 205, 4-(6-Methoxypyrazin-2-yl)-2-(pyridin-2-ylmethoxy)-5,6,7,8-tetrahydroquinoline hydrochloride] |
| 36.5 | Nc1cncc(-c2cc(OCc3ccccn3)nc3c2CCCC3)n1 [Example 206, 6-[2-(Pyridin-2-ylmethoxy)-5,6,7,8-tetrahydroquinolin-4-yl]pyrazin-2-amine hydrochloride] |
| 346 | Nc1cnc(-c2cc(OCc3ccccn3)nc3c2CCCC3)cn1 [Example 207, 5-[2-(Pyridin-2-ylmethoxy)-5,6,7,8-tetrahydroquinolin-4-yl]pyrazin-2-amine] |
| 125 | CNc1cncc(-c2cc(OCc3ccccn3)nc3c2CCCC3)n1 [Example 208, N-Methyl-6-[2-(pyridin-2-ylmethoxy)-5,6,7,8-tetrahydroquinolin-4-yl]pyrazin-2-amine hydrochloride] |
| 47.3 | Fc1ccnc(-c2cc(OCc3ccccn3)nc3c2CCCC3)c1 [Example 223, 4-(4-Fluoropyridin-2-yl)-2-(pyridin-2-ylmethoxy)-5,6,7,8-tetrahydroquinoline] |
| 25.6 | c1ccc(COc2cc(-c3cncs3)c3c(n2)CCCC3)nc1 [Example 224, 2-(Pyridin-2-ylmethoxy)-4-(1,3-thiazol-5-yl)-5,6,7,8-tetrahydroquinoline] |
| 102 | Cc1ncc(-c2cc(OCc3ccccn3)nc3c2CCCC3)s1 [Example 225, 4-(2-Methyl-1,3-thiazol-5-yl)-2-(pyridin-2-ylmethoxy)-5,6,7,8-tetrahydroquinoline hydrochloride] |
| 28.9 | c1ccc(COc2cc(-c3cccnc3)c3c(n2)CCCCC3)nc1 [Example 232, 4-(Pyridin-3-yl)-2-(pyridin-2-ylmethoxy)-6,7,8,9-tetrahydro-5H-cyclohepta[b]pyridine] |
